The nature of data set [1]: Selectivity of Tpl2 to p38.
Data set [2] in a line: Selectivity of Tpl2 to PKA.
Data set [3] is described as follows: Selectivity of Tpl2 to MK2.
Data set [4] in a line: Selectivity of Tpl2 to PKC.
A short description of data set [5]: Selectivity of Tpl2 to Src.
A short description of data set [6]: Selectivity of Tpl2 to CAMK2.
Data set [7] is described as follows: Membrane permeability by PAMPA assay. The class given is ADME. Conditions: read-out: permeability. (In general: PAMPA measures passive passage across an artificial lipid membrane.)
Data set [8] in a line: Selectivity of Tpl2 to EGFR.

From ChEMBL document CHEMBL1136974, “Selective inhibitors of tumor progression loci-2 (Tpl2) kinase with potent inhibition of TNF-alpha production in human whole blood” (Bioorg Med Chem Lett, 2009) come the findings set out here.

In the case of `N#Cc1cnc2c(Cl)cc(NCc3cn(Cc4ccccc4)nn3)cc2c1Nc1ccc(F)c(Cl)c1`, the fold change (FC) in data set [1], in data set [2], in data set [3], in data set [4], in data set [5] and in data set [6] was 10 in each case.
Turning to `N#Cc1cnc2c(Cl)cc(NCc3cn(Cc4ccccn4)nn3)cc2c1Nc1ccc(F)c(Cl)c1`, the fold change (FC) in data set [1], in data set [2], in data set [3], in data set [4], in data set [5] and in data set [6] was 10 throughout.
Take `N#Cc1cnc2c(Cl)cc(NCc3cn(C4CCN(C5CCC5)CC4)nn3)cc2c1Nc1ccc(F)c(Cl)c1`: the fold change (FC) in data set [1], in data set [2], in data set [3], in data set [4], in data set [5] and in data set [6] was 10 each time. For the same compound, the Papp in data set [7] amounted to 0.43 ×10⁻⁶ cm/s.
Regarding `CC(C)(C)n1cc(CNc2cc(Cl)c3ncc(C#N)c(Nc4ccc(F)c(Cl)c4)c3c2)nn1`, the fold change (FC) in data set [1], in data set [2], in data set [3], in data set [4] and in data set [5] was 10 each time. Also, the Papp in data set [7] came out at 0.1 ×10⁻⁶ cm/s.
Regarding `N#Cc1cnc2c(Cl)cc(NCc3c[nH]nn3)cc2c1Nc1ccc(F)c(Cl)c1`, the fold change (FC) in data set [1], in data set [2], in data set [3], in data set [4], in data set [8] and in data set [5] was 10 each time. Moreover, the fold change (FC) in data set [6] is 10.
Take `CCCN1CCC(n2cc(CNc3cc(Cl)c4ncc(C#N)c(Nc5ccc(F)c(Cl)c5)c4c3)nn2)CC1`: the fold change (FC) in data set [1], in data set [2], in data set [3], in data set [4], in data set [5] and in data set [6] was 10 in each case. For the same compound, the Papp in data set [7] is 0.48 ×10⁻⁶ cm/s.
Regarding `N#Cc1cnc2c(Cl)cc(NCc3cn(CC(=O)O)nn3)cc2c1Nc1ccc(F)c(Cl)c1`, the fold change (FC) in data set [1], in data set [2], in data set [3], in data set [4], in data set [5] and in data set [6] was 10 in each case. Further, in data set [7], the Papp stood at 0.04 ×10⁻⁶ cm/s.
In the case of `N#Cc1cnc2c(Br)cc(NCc3cn(Cc4cccnc4)nn3)cc2c1Nc1ccc(F)c(Cl)c1`, the fold change (FC) in data set [1], in data set [2], in data set [3], in data set [4], in data set [5] and in data set [6] was 10 each time. Also, the Papp in data set [7] is 0.13 ×10⁻⁶ cm/s.
As for `N#Cc1cnc2c(Cl)cc(NCc3cn(CCN4CCOCC4)nn3)cc2c1Nc1ccc(F)c(Cl)c1`, the fold change (FC) in data set [1], in data set [2], in data set [3], in data set [4], in data set [5] and in data set [6] was 10 throughout.
Regarding `CN(C)CCn1cc(CNc2cc(Cl)c3ncc(C#N)c(Nc4ccc(F)c(Cl)c4)c3c2)nn1`, the fold change (FC) in data set [1], in data set [2], in data set [3], in data set [4], in data set [5] and in data set [6] was 10 throughout.
Consider `N#Cc1cnc2c(Cl)cc(NCc3cn(Cc4cccnc4)nn3)cc2c1Nc1ccc(F)c(Cl)c1`, for which the fold change (FC) in data set [1], in data set [2], in data set [3], in data set [4], in data set [5] and in data set [6] was 10 throughout. For the same compound, the Papp in data set [7] is 0.18 ×10⁻⁶ cm/s.
As for `CN1CCC(n2cc(CNc3cc(Cl)c4ncc(C#N)c(Nc5ccc(F)c(Cl)c5)c4c3)nn2)CC1`, the fold change (FC) in data set [1], in data set [2], in data set [3], in data set [4], in data set [5] and in data set [6] was 10 each time. In data set [7], the Papp is 0.39 ×10⁻⁶ cm/s.
`N#Cc1cnc2c(Cl)cc(NCc3cn(-c4ccccc4)nn3)cc2c1Nc1ccc(F)c(Cl)c1`: the fold change (FC) in data set [1], in data set [2], in data set [3], in data set [4], in data set [5] and in data set [6] was 10 in each case.
As to `N#Cc1cnc2c(Cl)cc(NCc3cn(CCCN)nn3)cc2c1Nc1ccc(F)c(Cl)c1`, the fold change (FC) in data set [1], in data set [2], in data set [3], in data set [4], in data set [5] and in data set [6] was 10 in each case.
In the case of `N#Cc1cnc2c(Cl)cc(NCc3cn(CCN4CCCCC4)nn3)cc2c1Nc1ccc(F)c(Cl)c1`, the fold change (FC) in data set [1], in data set [2], in data set [3], in data set [4], in data set [5] and in data set [6] was 10 each time.
On to `N#Cc1cnc2c(Br)cc(NCc3cn(-c4ccccc4)nn3)cc2c1Nc1ccc(F)c(Cl)c1`, for which the fold change (FC) in data set [1], in data set [2], in data set [3], in data set [4], in data set [5] and in data set [6] was 10 in each case. For the same compound, in data set [7], the Papp amounted to 1.2 ×10⁻⁶ cm/s.
For `CC(C)N1CCC(n2cc(CNc3cc(Cl)c4ncc(C#N)c(Nc5ccc(F)c(Cl)c5)c4c3)nn2)CC1`, the fold change (FC) in data set [1], in data set [2], in data set [3], in data set [4], in data set [5] and in data set [6] was 10 in each case.
For the compound `N#Cc1cnc2c(Br)cc(NCc3c[nH]nn3)cc2c1Nc1ccc(F)c(Cl)c1`, the fold change (FC) in data set [1], in data set [2], in data set [3], in data set [4] and in data set [5] was 10 each time.
As for `CN1CCCC1CCn1cc(CNc2cc(Cl)c3ncc(C#N)c(Nc4ccc(F)c(Cl)c4)c3c2)nn1` (centres undefined), the fold change (FC) in data set [1], in data set [2], in data set [3], in data set [4], in data set [5] and in data set [6] was 10 each time.
With `N#Cc1cnc2c(Cl)cc(NCc3cn(CCN4CCCCCC4)nn3)cc2c1Nc1ccc(F)c(Cl)c1`, the fold change (FC) in data set [1], in data set [2], in data set [3], in data set [4], in data set [5] and in data set [6] was 10 throughout.
For `N#Cc1cnc2c(Br)cc(NCc3cn(CCC4CCCN4)nn3)cc2c1Nc1ccc(F)c(Cl)c1` (centres undefined), the fold change (FC) in data set [1], in data set [2], in data set [3], in data set [4], in data set [5] and in data set [6] was 10 throughout. The Papp in data set [7] was found to be 0.72 ×10⁻⁶ cm/s.
For the compound `N#Cc1cnc2c(Cl)cc(NCc3cn(CCC4CCCN4)nn3)cc2c1Nc1ccc(F)c(Cl)c1` (centres undefined), the fold change (FC) in data set [1], in data set [2], in data set [3], in data set [4], in data set [5] and in data set [6] was 10 each time. Also, the Papp in data set [7] worked out at 0.57 ×10⁻⁶ cm/s.
Take `N#Cc1cnc2c(Br)cc(NCc3cn(CC(=O)O)nn3)cc2c1Nc1ccc(F)c(Cl)c1`: the fold change (FC) in data set [1], in data set [2], in data set [3], in data set [4], in data set [5] and in data set [6] was 10 each time. Moreover, the Papp in data set [7] came to 1.8 ×10⁻⁶ cm/s.
Consider `CC(C)(C)n1cc(CNc2cc(Br)c3ncc(C#N)c(Nc4ccc(F)c(Cl)c4)c3c2)nn1`, for which the fold change (FC) in data set [1], in data set [2], in data set [3], in data set [4], in data set [5] and in data set [6] was 10 each time.
Take `N#Cc1cnc2c(Cl)cc(NCc3cn(CCN)nn3)cc2c1Nc1ccc(F)c(Cl)c1`: the fold change (FC) in data set [1], in data set [2], in data set [3], in data set [4], in data set [5] and in data set [6] was 10 in each case.
For `N#Cc1cnc2c(Cl)cc(NCc3cn(C4CCNCC4)nn3)cc2c1Nc1ccc(F)c(Cl)c1`, the fold change (FC) in data set [1], in data set [2], in data set [3], in data set [4], in data set [5] and in data set [6] was 10 throughout. Also, the Papp in data set [7] turned out to be 0.03 ×10⁻⁶ cm/s.
With `N#Cc1cnc2c(Cl)cc(NCc3cn(-c4cccnc4)nn3)cc2c1Nc1ccc(F)c(Cl)c1`, the fold change (FC) in data set [1], in data set [2], in data set [3], in data set [4], in data set [5] and in data set [6] was 10 throughout.
For `CCN1CCC(CCn2cc(CNc3cc(Cl)c4ncc(C#N)c(Nc5ccc(F)c(Cl)c5)c4c3)nn2)CC1`, the fold change (FC) in data set [1], in data set [2], in data set [3], in data set [4], in data set [5] and in data set [6] was 10 in each case.
